From patent US9695155B2, “Herbicidal substituted pyrimidinyloxy benzene compounds” (E. I. DU PONT DE NEMOURS AND COMPANY, priority 2013, dated 2017)

Key:
[1] = system: pigweed; assay: Test A postemergence; assay type: in vivo, Amaranthus retroflexus; settings: Amaranthus retroflexus, post-emergence, 0 to 100 scale where 0 is no effect and 100 is complete control, read-out: Plant response rating, Pigweed
Summary of the method: (§1)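 Scoring: eye-based comparison with untreated controls, 0 for no effect through 100 for complete control, at about day 10. Treatments: directed soil spray preemergence; foliar spray postemergence on 2–10 cm plants at the one- to two-leaf stage. Medium: loam soil with sand.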

[2] = system: oilseed rape; assay: Test C postemergence; assay type: in vivo, Brassica napus; settings: Brassica napus, post-emergence
Summary of the method: (§2)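 Visual injury score versus untreated controls, 0 = no effect, 100 = complete control, taken 13 to 15 days after treatment in the greenhouse. Pre-emergence pots held loam/sand; post-emergence plants grew in sphagnum peat/vermiculite mix and were sprayed at the 1- to 4-leaf stage.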

[3] = system: large (Lg) crabgrass; assay: Test C postemergence; assay type: in vivo, Digitaria sanguinalis; settings: Digitaria sanguinalis, post-emergence
Summary of the method: as §2

[4] = system: chickweed; assay: Test C postemergence; assay type: in vivo, Stellaria media; settings: Stellaria media, post-emergence
Summary of the method: as §2

[5] = system: pigweed; assay: Test A preemergence; assay type: in vivo, Amaranthus retroflexus; settings: Amaranthus retroflexus, pre-emergence
Summary of the method: as §1

[6] = system: morningglory; assay: Test A postemergence; assay type: in vivo, Ipomoea spp.; settings: Ipomoea, post-emergence, 240 h, 0 to 100 scale where 0 is no effect and 100 is complete control, read-out: Plant response rating, Morningglory
Summary of the method: as §1

[7] = system: barnyardgrass; assay: Test C postemergence; assay type: in vivo, Echinochloa crus-galli; settings: Echinochloa crus-galli, post-emergence
Summary of the method: as §2

[8] = system: barnyardgrass; assay: Test B flooded paddy test; assay type: in vivo, Echinochloa crus-galli; settings: Echinochloa crus-galli; Flood, 250 g ai/ha; 0 to 100 scale where 0 is no effect and 100 is complete control; read-out: Plant response rating, Barnyardgrass
Summary of the method: (§3)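 2-leaf stage plants; pots flooded to 3 cm, compound added to paddy water, depth maintained. Greenhouse 13–15 d. Visual rating vs untreated controls, 0 (no effect) to 100 (complete control); dash = no result.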

[9] = system: waterhemp; assay: Test C postemergence; assay type: in vivo, Amaranthus rudis; settings: Amaranthus tuberculatus, post-emergence
Summary of the method: as §2

[10] = system: johnsongrass; assay: Test C postemergence; assay type: in vivo, Sorghum halepense
Summary of the method: as §2

[11] = system: corn; assay: Test C postemergence; assay type: in vivo, Zea mays; settings: Zea mays, post-emergence
Summary of the method: as §2

[12] = system: Heteranthera limosa; assay: Test B flooded paddy test; assay type: in vivo; settings: Heteranthera limosa, Flood, 250 g ai/ha; 0 to 100 scale where 0 is no effect and 100 is complete control; read-out: Plant response rating, Ducksalad
Summary of the method: as §3

[13] = system: sedge, umbrella; assay: Test B flooded paddy test; assay type: in vivo, Cyperus difformis; settings: Cyperus difformis, Flood, 250 g ai/ha; 0 to 100 scale where 0 is no effect and 100 is complete control; read-out: Plant response rating, Sedge, Umbrella
Summary of the method: as §3

[14] = system: wheat, winter; assay: Test C postemergence; assay type: in vivo, Triticum aestivum; settings: Triticum aestivum, post-emergence
Summary of the method: as §2

[15] = system: velvetleaf; assay: Test A preemergence; assay type: in vivo, Abutilon theophrasti
Summary of the method: as §1

**Q.** How did the pest or weed control at 125 g/ha ([1]; 125 g ai/ha) turn out when `FC(F)c1cnn(-c2ccccc2Oc2ncc(Cl)cn2)c1` [Compound 80, 5-chloro-2-[2-[4-(difluoromethyl)-1H-pyrazol-1-yl]phenoxy]pyrimidine] was run?
**A.** 100%

**Q.** What about the pest or weed control at 500 g/ha ([1]; 500 g ai/ha) of the same compound?
**A.** 100%

**Q.** What about the plant injury at 125 g/ha ([2]; 125 g ai/ha, postemergence, read-out: Plant response rating (0 to 100), Oilseed Rape) of the same compound?
**A.** 90%

**Q.** What about the plant injury at 31 g/ha ([2]; Postemergence, 31 g ai/ha, scale 0 to 100 (0 no effect, 100 complete control), 13 to 15 days, read-out: Plant response rating, Oilseed Rape) of the same compound?
**A.** 70%

**Q.** What about the plant injury at 62 g/ha ([2]; Postemergence, 62 g ai/ha, scale 0 to 100 (0 no effect, 100 complete control), read-out: Plant response rating, Oilseed Rape) of the same compound?
**A.** 80%

**Q.** And the pest or weed control at 16 g/ha ([3]; 16 g ai/ha, postemergence, visual rating, scale 0 to 100 (0 no effect, 100 complete control), 13 to 15 days, read-out: Crabgrass, Large plant response rating)?
**A.** 0%

**Q.** And the pest or weed control at 125 g/ha ([3]; 125 g ai/ha, postemergence, read-out: Plant response rating (0 to 100), Crabgrass, Large)?
**A.** 5%

**Q.** What about the pest or weed control at 31 g/ha ([3]; Postemergence, 31 g ai/ha, scale 0 to 100 (0 no effect, 100 complete control), 13 to 15 days, read-out: Plant response rating, Crabgrass, Large) of the same compound?
**A.** 5%

**Q.** What about the pest or weed control at 62 g/ha ([3]; Postemergence, 62 g ai/ha, scale 0 to 100 (0 no effect, 100 complete control), read-out: Plant response rating, Crabgrass, Large) of the same compound?
**A.** 5%

**Q.** What about the pest or weed control at 16 g/ha ([4]; 16 g ai/ha, postemergence, visual rating, scale 0 to 100 (0 no effect, 100 complete control), 13 to 15 days, read-out: Chickweed plant response rating) of the same compound?
**A.** 50%

**Q.** And the pest or weed control at 125 g/ha ([4]; 125 g ai/ha, postemergence, read-out: Plant response rating (0 to 100), Chickweed)?
**A.** 70%

**Q.** And the pest or weed control at 31 g/ha ([4]; Postemergence, 31 g ai/ha, scale 0 to 100 (0 no effect, 100 complete control), 13 to 15 days, read-out: Plant response rating, Chickweed)?
**A.** 60%

**Q.** What about the pest or weed control at 62 g/ha ([4]; Postemergence, 62 g ai/ha, scale 0 to 100 (0 no effect, 100 complete control), read-out: Plant response rating, Chickweed) of the same compound?
**A.** 65%

**Q.** What about the pest or weed control at 125 g/ha ([5]; 125 g ai/ha, 0 to 100 scale where 0 is no effect and 100 is complete control, read-out: Plant response rating, Pigweed) of the same compound?
**A.** 0%

**Q.** What about the pest or weed control at 500 g/ha ([5]; 240 h, 500 g ai/ha, 0 to 100 scale, 0 no effect, 100 complete control, approx. 10 days, read-out: Pigweed plant response rating) of the same compound?
**A.** 0%

**Q.** What about the pest or weed control at 125 g/ha ([6]; 125 g ai/ha) of the same compound?
**A.** 90%

**Q.** And the pest or weed control at 500 g/ha ([6]; 500 g ai/ha)?
**A.** 100%

**Q.** And the pest or weed control at 16 g/ha ([7]; 16 g ai/ha, postemergence, visual rating, scale 0 to 100 (0 no effect, 100 complete control), 13 to 15 days, read-out: Barnyardgrass plant response rating)?
**A.** 0%

**Q.** And the pest or weed control at 125 g/ha ([7]; 125 g ai/ha, postemergence, read-out: Plant response rating (0 to 100), Barnyardgrass)?
**A.** 5%

**Q.** And the pest or weed control at 31 g/ha ([7]; Postemergence, 31 g ai/ha, scale 0 to 100 (0 no effect, 100 complete control), 13 to 15 days, read-out: Plant response rating, Barnyardgrass)?
**A.** 5%

**Q.** What about the pest or weed control at 62 g/ha ([7]; Postemergence, 62 g ai/ha, scale 0 to 100 (0 no effect, 100 complete control), read-out: Plant response rating, Barnyardgrass) of the same compound?
**A.** 5%

**Q.** And the pest or weed control at 250 g/ha [8]?
**A.** 0%

**Q.** And the pest or weed control at 125 g/ha ([9]; 125 g ai/ha, postemergence, read-out: Plant response rating (0 to 100), Waterhemp)?
**A.** 90%

**Q.** And the pest or weed control at 31 g/ha ([9]; Postemergence, 31 g ai/ha, scale 0 to 100 (0 no effect, 100 complete control), 13 to 15 days, read-out: Plant response rating, Waterhemp)?
**A.** 65%

**Q.** And the pest or weed control at 62 g/ha ([9]; Postemergence, 62 g ai/ha, scale 0 to 100 (0 no effect, 100 complete control), read-out: Plant response rating, Waterhemp)?
**A.** 70%

**Q.** And the “Johnsongrass plant response rating” value ([10]; 16 g ai/ha, postemergence, visual rating, scale 0 to 100 (0 no effect, 100 complete control), 13 to 15 days)?
**A.** 0

**Q.** What about the pest or weed control at 125 g/ha ([10]; Sorghum halepense, post-emergence, 125 g ai/ha, postemergence, read-out: Plant response rating (0 to 100), Johnsongrass) of the same compound?
**A.** 5%

**Q.** And the pest or weed control at 31 g/ha ([10]; Sorghum halepense, post-emergence, Postemergence, 31 g ai/ha, scale 0 to 100 (0 no effect, 100 complete control), 13 to 15 days, read-out: Plant response rating, Johnsongrass)?
**A.** 0%

**Q.** And the pest or weed control at 62 g/ha ([10]; Sorghum halepense, post-emergence, Postemergence, 62 g ai/ha, scale 0 to 100 (0 no effect, 100 complete control), read-out: Plant response rating, Johnsongrass)?
**A.** 5%

**Q.** And the plant injury at 16 g/ha ([11]; 16 g ai/ha, postemergence, visual rating, scale 0 to 100 (0 no effect, 100 complete control), 13 to 15 days, read-out: Corn plant response rating)?
**A.** 0%

**Q.** What about the plant injury at 125 g/ha ([11]; 125 g ai/ha, postemergence, read-out: Plant response rating (0 to 100), Corn) of the same compound?
**A.** 5%

**Q.** What about the Corn plant response rating (crop injury, 0 = no effect, 100 = complete kill) at 31 g/ha ([11]; Postemergence, 31 g ai/ha, scale 0 to 100 (0 no effect, 100 complete control), 13 to 15 days) of the same compound?
**A.** 0%

**Q.** What about the Corn plant response rating (crop injury, 0 = no effect, 100 = complete kill) at 62 g/ha ([11]; Postemergence, 62 g ai/ha, scale 0 to 100 (0 no effect, 100 complete control)) of the same compound?
**A.** 5%

**Q.** And the pest or weed control at 250 g/ha [12]?
**A.** 100%

**Q.** What about the pest or weed control at 250 g/ha [13] of the same compound?
**A.** 80%

**Q.** And the plant injury at 125 g/ha ([14]; 125 g ai/ha, postemergence, read-out: Plant response rating (0 to 100), Wheat)?
**A.** 30%

**Q.** What about the plant injury at 31 g/ha ([14]; Postemergence, 31 g ai/ha, scale 0 to 100 (0 no effect, 100 complete control), 13 to 15 days, read-out: Plant response rating, Wheat) of the same compound?
**A.** 0%

**Q.** And the plant injury at 62 g/ha ([14]; Postemergence, 62 g ai/ha, scale 0 to 100 (0 no effect, 100 complete control), read-out: Plant response rating, Wheat)?
**A.** 5%

**Q.** And the “Plant response rating, Velvetleaf” value ([15]; 125 g ai/ha, 0 to 100 scale where 0 is no effect and 100 is complete control)?
**A.** 80

**Q.** And the pest or weed control at 500 g/ha ([15]; Abutilon theophrasti, pre-emergence, 240 h, 500 g ai/ha, 0 to 100 scale, 0 no effect, 100 complete control, approx. 10 days, read-out: Velvetleaf plant response rating)?
**A.** 90%
